# Reference: PMC4043666, “Mass Spectrometry Based Identification of Geometric Isomers during Metabolic Stability Study of a New Cytotoxic Sulfonamide Derivatives Supported by Quantitative Structure-Retention Relationships” (PLoS ONE, 2014)
# Assays:
# [1] = RP-LC determination of chromatographic lipophilicity log kw (DryLab); type: physicochemical; settings: Poroshell EC18 column, 30°C, acetonitrile 5-100% gradients of 30 and 60 min, calculated with DryLab
# Experimental: (2) In order to obtain input lipophilicity data, reversed-phase liquid chromatography (RP-LC) log kw determination experiments were performed using the Agilent 1260 apparatus (Agilent Technologies, Santa Clara, CA, USA) equipped with UV and single quadrupole mass detectors, and an autosampler and column thermostat. A Poroshell EC18 150×3 mm column with a particle size of 2.7 µm was applied. Chromatographic measurements were made at 30°C with an eluent flow rate of 0.25 mL/min. Two chromatographic runs were conducted for each compound with different linear gradient times (30 and 60 min), and with an acetonitrile composition in the mobile phase increasing from 5% to 100%. The obtained retention times were further used to calculate log kw values applying the DryLab 2000 Plus software (LC Resources, Walnut Creek, CA, USA). DryLab estimated the log kw value according to the linear equation: log k = logkw+Sφ (k – retention factor, S – slope, φ – volume fraction of the organic modifier) The elution program, as well as the column, mobile phase and instrument properties were taken into account to determine the coefficients in the abovementioned equation. Two analytical runs were required to fit the data, and peak assignment was done manually to ensure the correct identification.
# [2] = Chemical stability / cis-trans isomerization in solution (LC-MS); type: physicochemical; settings: for % of isomerization at the beginning of incubation: biotransformation incubation samples, start of incubation
# Experimental: Additionally, chemical stability (negative control) in biotransformation experiment conditions was performed (phosphate buffer, 37°C, 2 h) to evaluate possible instability, unrelated to the activity of microsomes (including putative isomerization).
# (§1) LC-MS analysis was performed on an Agilent 1260 system coupled to a SingleQuad 6120 mass spectrometer (Agilent Technologies, Santa Clara, CA, USA). The amount of remaining parent compound was determined as a percentage of a peak area of a trans isomer at the start of the incubation.
# (§2) A Poroshell C18 EC120 column (3.0×100 mm, 2.7 µm, Agilent Technologies, Santa Clara, CA, USA) was used in reversed-phase mode with gradient elution starting with 5% of phase A (0.1% formic acid in water) and 95% of phase B (0.1% formic acid in acetonitrile). […] The total analysis time was 42 min at 25°C, the flow rate was 0.25 mL/min and the injection volume was 20 µL. The mass spectrometer was equipped with an electrospray ionization source and the ionization mode was positive. The mass analyzer was set individually to each derivative to detect pseudomolecular ions [M+H^+]. The mass spectrometry detector parameters of the ESI source were as follows: nebulizer pressure 40 psi (N2), drying gas […] (N2), drying gas temperature 300°C, capillary voltage +3 kV.
# [3] = In vitro metabolic stability in human liver microsomes (LC-MS); type: in vitro ADME; settings: for % of compound remaining after 120 min incubation: HLM 0.53 mg/mL, 1 mM NADPH, compound 10 µM, phosphate buffer pH 7.4, 37°C, percentage of peak area of trans isomer at start of incubation
# Experimental: Stock solutions of the studied compounds were made at a concentration of 1 mM in DMSO:MeOH mixture (10∶90 v/v) to prevent their precipitation. For biotransformation incubations, the solution of compounds was diluted to 10 µM with the presence of 1 mM of NADPH (Sigma-Aldrich, St. Louis, MO, USA) in a potassium phosphate buffer (0.1 M, pH 7.4). Incubation was carried out in thermoblock (Labnet International, Edison, NJ, USA) at 37°C and started with the addition of pooled human liver microsomes with a final concentration of 0.53 mg/mL (Sigma-Aldrich, St. Louis, MO, USA). Directly after HLM was added and at 120 min of incubation the reaction was ended by the addition of an equal volume of ice-cold methanol with 0.1% (v/v) of formic acid. The samples were immediately centrifuged (10 min at 11700 g) and the resulting supernatant was directly analyzed or kept at −80°C until LC-MS or LC-QTOF-MS analysis.
# as §1, §2
SMILES,logkw [1],% of isomerization at the beginning of incubation [2] [%],% of compound remaining after 120 min incubation [3] [%],"biotransformation reactions observed ([3]; HLM with NADPH, LC-MS/MS)",cis-trans isomerization in the studied conditions ([2]; water solution / incubation conditions)
CCC(=NNc1ccc([N+](=O)[O-])cc1)Sc1cc(Cl)c(C)cc1S(N)(=O)=O [Compound 1],–,5.84,53.51,–,–
Cc1cc(S(N)(=O)=O)c(S/C(=N/Nc2ccc([N+](=O)[O-])cc2)C(C)C)cc1Cl [Compound 3],–,7.76,76.13,–,–
Cc1cc(S(N)(=O)=O)c(S/C(=N/Nc2ccc([N+](=O)[O-])cc2[N+](=O)[O-])C(C)C)cc1Cl [Compound 4],–,0.00,62.86,–,did not occur
Cc1cc(S(N)(=O)=O)c(S/C(CC(C)C)=N/Nc2ccc([N+](=O)[O-])cc2)cc1Cl [Compound 5],–,5.84,79.95,–,–
Cc1cc(S(N)(=O)=O)c(S/C(=N/Nc2ccc([N+](=O)[O-])cc2)C(C)(C)C)cc1Cl [Compound 6],–,3.50,83.88,–,–
Cc1cc(S(N)(=O)=O)c(S/C(=N/Nc2ccc([N+](=O)[O-])cc2)c2ccc(Cl)cc2)cc1Cl [Compound 10],–,7.79,90.80,–,–
Cc1cc(S(N)(=O)=O)c(S/C(=N/Nc2ccc([N+](=O)[O-])cc2)c2ccc([N+](=O)[O-])cc2)cc1Cl [Compound 11],–,1.50,98.97,–,–
Cc1ccc(/C(=N\Nc2ccc([N+](=O)[O-])cc2)Sc2cc(Cl)c(C)cc2S(N)(=O)=O)cc1 [Compound 12],–,5.41,95.11,–,–
COc1ccc(/C(=N\Nc2ccc([N+](=O)[O-])cc2)Sc2cc(Cl)c(C)cc2S(N)(=O)=O)cc1 [Compound 13],–,2.66,95.33,–,–
Cc1cc(S(N)(=O)=O)c(S/C(=N/Nc2ccc([N+](=O)[O-])cc2)c2ccc3ccccc3c2)cc1Cl [Compound 15],–,4.93,99.40,–,–

# Further lines, with some results ahead:
logkw [1],% of isomerization at the beginning of incubation [2] [%],% of compound remaining after 120 min incubation [3] [%],"biotransformation reactions observed ([3]; HLM with NADPH, LC-MS/MS)",SMILES,cis-trans isomerization in the studied conditions ([2]; water solution / incubation conditions)
3.52,–,–,–,CC/C(=N/Nc1ccc([N+](=O)[O-])cc1)Sc1cc(Cl)c(C)cc1S(N)(=O)=O [1-cis],–
3.60,–,–,–,CC/C(=N\Nc1ccc([N+](=O)[O-])cc1)Sc1cc(Cl)c(C)cc1S(N)(=O)=O [1-trans],–
–,6.52,75.13,–,CCC/C(=N\Nc1ccc([N+](=O)[O-])cc1)Sc1cc(Cl)c(C)cc1S(N)(=O)=O [Compound 2],–
–,5.53,60.90,–,CCCCC/C(=N\Nc1ccc([N+](=O)[O-])cc1)Sc1cc(Cl)c(C)cc1S(N)(=O)=O [Compound 7],–
–,5.25,58.23,–,Cc1cc(S(N)(=O)=O)c(S/C(CCc2ccccc2)=N/Nc2ccc([N+](=O)[O-])cc2)cc1Cl [Compound 8],–
–,9.28,96.03,–,Cc1cc(S(N)(=O)=O)c(S/C(=N/Nc2ccc([N+](=O)[O-])cc2)c2ccccc2)cc1Cl [Compound 9],–
–,–,74.88,reductive debromination reaction,Cc1cc(S(N)(=O)=O)c(SC(=NNc2ccc([N+](=O)[O-])cc2)c2ccc(O)c(Br)c2)cc1Cl [Compound 14],–
